ChEMBL document CHEMBL3779786, “Tabtoxinine--lactam is a stealth -lactam antibiotic that evades -lactamase-mediated antibiotic resistance” (Medchemcomm, 2016)
Active and inactive are the calls of the source.

Experiments:
[1] = Drug level assessed as 1 uM Escherichia coli DH5alpha beta lactamase CTX-M-9 mediated compound formation treated with benzyl penicillin at 1 mM after 5 hrs by HPLC analysis; format: ADME; conditions: escherichia coli dh5[alpha], 1000 µM
[2] = Drug level assessed as 2 nM Escherichia coli DH5alpha beta lactamase CTX-M-9 mediated compound formation treated with benzyl penicillin at 1 mM after 30 mins by HPLC analysis; format: ADME; conditions: escherichia coli dh5[alpha], 0.5 h, 1000 µM
[3] = Drug level assessed as 2 nM Escherichia coli DH5alpha beta lactamase TEM-1 mediated compound formation treated with benzyl penicillin at 1 mM after 30 mins by LCMS analysis; format: ADME; conditions: escherichia coli dh5[alpha], 0.5 h, 1000 µM
[4] = Drug level assessed as 2 nM Escherichia coli DH5alpha beta lactamase CTX-M-9 mediated compound formation treated with benzyl penicillin at 1 mM after 30 mins by LCMS analysis; format: ADME; conditions: escherichia coli dh5[alpha], 0.5 h, 1000 µM
[5] = Drug level assessed as 2 nM Escherichia coli DH5alpha beta lactamase TEM-1 mediated compound formation treated with benzyl penicillin at 1 mM after 30 mins by HPLC analysis; format: ADME; conditions: escherichia coli dh5[alpha], 0.5 h, 1000 µM
[6] = Drug level assessed as 1 uM Escherichia coli DH5alpha beta lactamase TEM-1 mediated compound formation treated with benzyl penicillin at 1 mM after 5 hrs by LCMS analysis; format: ADME; conditions: escherichia coli dh5[alpha], 1000 µM
[7] = Drug level assessed as 1 uM Escherichia coli DH5alpha beta lactamase CTX-M-9 mediated compound formation treated with benzyl penicillin at 1 mM after 5 hrs by LCMS analysis; format: ADME; conditions: escherichia coli dh5[alpha], 1000 µM
[8] = Drug level assessed as 1 uM Escherichia coli DH5alpha beta lactamase TEM-1 mediated compound formation treated with benzyl penicillin at 1 mM after 5 hrs by HPLC analysis; format: ADME; conditions: escherichia coli dh5[alpha], 1000 µM
[9] = Drug metabolism assessed as 1 uM Escherichia coli DH5alpha beta lactamase CTX-M-9 mediated metabolite formation at 1 mM after 5 hrs by HPLC analysis; format: ADME; conditions: escherichia coli dh5[alpha], 1000 µM
[10] = Drug metabolism assessed as 2 nM Escherichia coli DH5alpha beta lactamase TEM-1 mediated metabolite formation at 1 mM after 30 mins by LCMS analysis; format: ADME; conditions: escherichia coli dh5[alpha], 0.5 h, 1000 µM
[11] = Drug metabolism assessed as 2 nM Escherichia coli DH5alpha beta lactamase TEM-1 mediated metabolite formation at 1 mM after 30 mins by HPLC analysis; format: ADME; conditions: escherichia coli dh5[alpha], 0.5 h, 1000 µM
[12] = Drug metabolism assessed as 2 nM Escherichia coli DH5alpha beta lactamase CTX-M-9 mediated metabolite formation at 1 mM after 30 mins by LCMS analysis; format: ADME; conditions: escherichia coli dh5[alpha], 0.5 h, 1000 µM
[13] = Drug metabolism assessed as 2 nM Escherichia coli DH5alpha beta lactamase CTX-M-9 mediated metabolite formation at 1 mM after 30 mins by HPLC analysis; format: ADME; conditions: escherichia coli dh5[alpha], 0.5 h, 1000 µM
[14] = Drug metabolism assessed as 1 uM Escherichia coli DH5alpha beta lactamase TEM-1 mediated metabolite formation at 1 mM after 5 hrs by LCMS analysis; format: ADME; conditions: escherichia coli dh5[alpha], 1000 µM
Escherichia coli [15] = test: Antibacterial activity against Escherichia coli ATCC 25922 in glutamine-free minimal media after 24 hrs by broth microdilution method; format: functional; conditions: ATCC 25922, 24 h
[16] = Drug metabolism assessed as 1 uM Escherichia coli DH5alpha beta lactamase TEM-1 mediated metabolite formation at 1 mM after 5 hrs by HPLC analysis; format: ADME; conditions: escherichia coli dh5[alpha], 1000 µM
[17] = Drug metabolism assessed as 1 uM Escherichia coli DH5alpha beta lactamase CTX-M-9 mediated metabolite formation at 1 mM after 5 hrs by LCMS analysis; format: ADME; conditions: escherichia coli dh5[alpha], 1000 µM
Escherichia coli [18] = test: Antibacterial activity against Escherichia coli DH5alpha expressing beta lactamase CTX-M-15 in glutamine-free minimal media after 24 hrs by broth microdilution method; format: functional; conditions: DH5[alpha]
Escherichia coli [19] = test: Antibacterial activity against Escherichia coli BL21(DE3) expressing beta lactamase TEM-1 in glutamine-free minimal media after 24 hrs by broth microdilution method; format: functional
Escherichia coli [20] = test: Antibacterial activity against Escherichia coli DH5alpha expressing beta lactamase OXA-24/40 in glutamine-free minimal media after 24 hrs by broth microdilution method; format: functional; conditions: DH5[alpha]
Escherichia coli [21] = test: Antibacterial activity against Escherichia coli in glutamine containing nutrient broth at 0.06 to 128 uM; format: functional, organism-based
Escherichia coli [22] = test: Antibacterial activity against Escherichia coli DH5alpha expressing beta lactamase SHV-5 in glutamine-free minimal media after 24 hrs by broth microdilution method; format: functional; conditions: DH5[alpha]
Escherichia coli [23] = test: Antibacterial activity against Escherichia coli DH5alpha expressing beta lactamase TEM-1 in glutamine-free minimal media after 24 hrs by broth microdilution method; format: functional; conditions: DH5[alpha]
Escherichia coli [24] = test: Antibacterial activity against Escherichia coli BL21(DE3) expressing beta lactamase TEM-1 with no leader sequence in glutamine-free minimal media after 24 hrs by broth microdilution method; format: functional
Staphylococcus aureus = test: Bacteriostatic activity against Staphylococcus aureus in glutamine-free minimal media; format: functional, organism-based
Escherichia coli [25] = test: Antibacterial activity against Escherichia coli DH5alpha expressing beta lactamase KPC-3 in glutamine-free minimal media after 24 hrs by broth microdilution method; format: functional; conditions: DH5[alpha]
Escherichia coli [26] = test: Antibacterial activity against Escherichia coli DH5alpha expressing beta lactamase SHV-12 in glutamine-free minimal media after 24 hrs by broth microdilution method; format: functional; conditions: DH5[alpha]
Escherichia coli [27] = test: Antibacterial activity against Escherichia coli BL21(DE3) expressing beta lactamase TEM-64 in glutamine-free minimal media after 24 hrs by broth microdilution method; format: functional
Escherichia coli [28] = test: Antibacterial activity against Escherichia coli DH5alpha expressing beta lactamase VIM-2 in glutamine-free minimal media after 24 hrs by broth microdilution method; format: functional; conditions: DH5[alpha]
Escherichia coli [29] = test: Antibacterial activity against Escherichia coli DH5alpha expressing beta lactamase TEM-24 in glutamine-free minimal media after 24 hrs by broth microdilution method; format: functional; conditions: DH5[alpha]
Escherichia coli [30] = test: Antibacterial activity against Escherichia coli DH5alpha in glutamine-free minimal media after 24 hrs by broth microdilution method; format: functional; conditions: DH5[alpha]
Escherichia coli [31] = test: Antibacterial activity against Escherichia coli BL21(DE3) in glutamine-free minimal media after 24 hrs by broth microdilution method; format: functional
Escherichia coli [32] = test: Antibacterial activity against Escherichia coli DH5alpha expressing beta lactamase NDM-1 in glutamine-free minimal media after 24 hrs by broth microdilution method; format: functional; conditions: DH5[alpha]
Escherichia coli [33] = test: Antibacterial activity against Escherichia coli BL21(DE3) expressing beta lactamase CTX-M-9 with no leader sequence in glutamine-free minimal media after 24 hrs by broth microdilution method; format: functional
Escherichia coli [34] = test: Bactericidal activity against Escherichia coli; format: functional, organism-based
Escherichia coli [35] = test: Antibacterial activity against Escherichia coli BL21(DE3) expressing beta lactamase CTX-M-9 in glutamine-free minimal media after 24 hrs by broth microdilution method; format: functional
[36] = Drug metabolism assessed as 2 nM Escherichia coli DH5alpha beta lactamase CTX-M-9 mediated formation of benzyl penicilloic acid at 1 mM after 30 mins by HPLC analysis; format: ADME; conditions: escherichia coli dh5[alpha], 0.5 h, 1000 µM
[37] = Drug metabolism assessed as 2 nM Escherichia coli DH5alpha beta lactamase CTX-M-9 mediated formation of benzyl penicilloic acid at 1 mM after 30 mins by LCMS analysis; format: ADME; conditions: escherichia coli dh5[alpha], 0.5 h, 1000 µM
[38] = Drug metabolism assessed as 1 uM Escherichia coli DH5alpha beta lactamase TEM-1 mediated formation of benzyl penicilloic acid at 1 mM after 5 hrs by LCMS analysis; format: ADME; conditions: escherichia coli dh5[alpha], 1000 µM
[39] = Drug metabolism assessed as 2 nM Escherichia coli DH5alpha beta lactamase TEM-1 mediated formation of benzyl penicilloic acid at 1 mM after 30 mins by HPLC analysis; format: ADME; conditions: escherichia coli dh5[alpha], 0.5 h, 1000 µM
[40] = Drug metabolism assessed as 2 nM Escherichia coli DH5alpha beta lactamase TEM-1 mediated formation of benzyl penicilloic acid at 1 mM after 30 mins by LCMS analysis; format: ADME; conditions: escherichia coli dh5[alpha], 0.5 h, 1000 µM
[41] = Drug metabolism assessed as 1 uM Escherichia coli DH5alpha beta lactamase CTX-M-9 mediated formation of benzyl penicilloic acid at 1 mM after 5 hrs by LCMS analysis; format: ADME; conditions: escherichia coli dh5[alpha], 1000 µM
[42] = Drug metabolism assessed as 1 uM Escherichia coli DH5alpha beta lactamase CTX-M-9 mediated formation of benzyl penicilloic acid at 1 mM after 5 hrs by HPLC analysis; format: ADME; conditions: escherichia coli dh5[alpha], 1000 µM
[43] = Drug metabolism assessed as 1 uM Escherichia coli DH5alpha beta lactamase TEM-1 mediated formation of benzyl penicilloic acid at 1 mM after 5 hrs by HPLC analysis; format: ADME; conditions: escherichia coli dh5[alpha], 1000 µM

CC1(C)S[C@H]([C@H](NC(=O)Cc2ccccc2)C(=O)O)N[C@H]1C(=O)O
metabolite_detected: Drug metabolism [1] | Drug metabolism [2] | Drug metabolism [3] | Drug metabolism [4] | Drug metabolism [5] | Drug metabolism [6] | Drug metabolism [7] | Drug metabolism [8]

N[C@@H](CC[C@]1(O)CNC1=O)C(=O)O
> 128 µM: MIC90 (Escherichia coli [15])
metabolite_detected: Drug metabolism [9] | Drug metabolism [10] | Drug metabolism [11] | Drug metabolism [12] | Drug metabolism [13] | Drug metabolism [14] | Drug metabolism [16] | Drug metabolism [17]

C[C@@H](O)[C@H](NC(=O)[C@@H](N)CC[C@]1(O)CNC1=O)C(=O)O
< 0.031 µM: MIC90 (Escherichia coli [22])
0.0625 µM: MIC90 (Escherichia coli [29])
4 µM: MIC90 (Escherichia coli [19]) | MIC90 (Escherichia coli [35])
0.5 µM: MIC90 (Escherichia coli [25]) | MIC90 (Escherichia coli [30]) | MIC90 (Escherichia coli [32])
8 µM: MIC90 (Escherichia coli [31]) | MIC90 (Escherichia coli [33])
inactive: Activity (Escherichia coli [21]) | Activity (Escherichia coli [34])
metabolite_detected: Drug metabolism [9] | Drug metabolism [10] | Drug metabolism [11] | Drug metabolism [12] | Drug metabolism [13] | Drug metabolism [14] | Drug metabolism [16] | Drug metabolism [17]
2 µM: MIC90 (Escherichia coli [20]) | MIC90 (Escherichia coli [28])
0.25 µM: MIC90 (Escherichia coli [23]) | MIC90 (Escherichia coli [26])
0.125 µM: MIC90 (Escherichia coli [18])
active: Activity (Staphylococcus aureus)
16 µM: MIC90 (Escherichia coli [24]) | MIC90 (Escherichia coli [27])

CC1(C)S[C@@H]2[C@H](NC(=O)[C@H](N)c3ccccc3)C(=O)N2[C@H]1C(=O)O [AMPICILLIN]
0.5 µM: MIC90 (Escherichia coli [31])
> 128 µM: MIC90 (Escherichia coli [18]) | MIC90 (Escherichia coli [19]) | MIC90 (Escherichia coli [20]) | MIC90 (Escherichia coli [22]) | MIC90 (Escherichia coli [23]) | MIC90 (Escherichia coli [24]) | MIC90 (Escherichia coli [25]) | MIC90 (Escherichia coli [26]) | MIC90 (Escherichia coli [27]) | MIC90 (Escherichia coli [28]) | MIC90 (Escherichia coli [29]) | MIC90 (Escherichia coli [32])
2 µM: MIC90 (Escherichia coli [30])
128 µM: MIC90 (Escherichia coli [33]) | MIC90 (Escherichia coli [35])

CC1(C)S[C@@H]2[C@H](NC(=O)Cc3ccccc3)C(=O)N2[C@H]1C(=O)O [PENICILLIN G]
metabolite_detected: Drug metabolism [36] | Drug metabolism [37] | Drug metabolism [38] | Drug metabolism [39] | Drug metabolism [40] | Drug metabolism [41] | Drug metabolism [42] | Drug metabolism [43]
128 µM: MIC90 (Escherichia coli [33]) | MIC90 (Escherichia coli [35])
> 128 µM: MIC90 (Escherichia coli [19]) | MIC90 (Escherichia coli [24]) | MIC90 (Escherichia coli [27])
4 µM: MIC90 (Escherichia coli [31])

GENTAMICIN
< 0.25 µM: MIC90 (Escherichia coli [22])
0.5 µM: MIC90 (Escherichia coli [20]) | MIC90 (Escherichia coli [25]) | MIC90 (Escherichia coli [26]) | MIC90 (Escherichia coli [29])
0.25 µM: MIC90 (Escherichia coli [30])
1 µM: MIC90 (Escherichia coli [18]) | MIC90 (Escherichia coli [23]) | MIC90 (Escherichia coli [28]) | MIC90 (Escherichia coli [32])
1.4 µM: MIC90 (Escherichia coli [19]) | MIC90 (Escherichia coli [24]) | MIC90 (Escherichia coli [27]) | MIC90 (Escherichia coli [31]) | MIC90 (Escherichia coli [33]) | MIC90 (Escherichia coli [35])
